Source: PMC12135063, “Pharmaceutical Analysis of Protein–Peptide Coformulations and the Influence of Polysorbates” (Molecular Pharmaceutics, 2025)
“And” between values parts separate entries of the source, which are not always exact repeats. Identical values can stand only once. Like-named read-outs stand apart in the source and are kept apart here. *1 amine or outer side, *2 acyl side, *3 side chain or, on linkers, in order; H or OH if unused. Where a SMILES comes first, the peptide text is derived from it. Side-chain parts run from the residue outwards. [ ]: non-standard residue; d: D form. The star is where a group is joined. γGlu = O=C(O)[C@H](CCC(=O)[*:2])N[*:1]; αMeF = C[C@](N)(Cc1ccccc1)C(=O)O; αMeK = C[C@](N)(CCCCN)C(=O)O; Lauroyl = CCCCCCCCCCCC(=O)*; αMeS = C[C@](N)(CO)C(=O)O; AEEA = NCCOCCOCC(=O)O; Aib = CC(C)(N)C(=O)O

Assays:
HSA [1] = molecular target: T1, HSA (Homo sapiens, UniProt P02768); assay: ITC titration of MEDI7219 into HSA in the absence and presence of polysorbate; assay type: binding; conditions: for Kd: read-out: dissociation constant; for αi (K B/A/K B): ratio of association constants with/without polysorbate
T1 construct: purchased Sigma-Aldrich UK; host or cells: human serum
Description: (§1) Lyophilized protein powders were rehydrated by adding buffer to the protein to achieve a concentration of 10 mg/mL, then stored at 5 °C for 72 h or until fully dissolved. Polysorbate concentrations chosen were 0.1× and 1× the critical micelle concentration (CMC) of each respective polysorbate. Due to the dilution of injection by the ITC, polysorbate formulations were formulated at 10 times the desired concentration. ITC experiments were performed using a Microcal PEAQ-ITC instrument from Malvern Panalytical. Prior to each experiment, the sample cell and syringe were cleaned using 20% Contrad 70 detergent, rinsed with ultrapure water, and dried using methanol. Titration experiments were conducted at 30 °C to ensure that the experimental temperature was above laboratory ambient temperature. As the Microcal PEAQ-ITC lacks a cooling unit, it was necessary to conduct experiments at a temperature that could be maintained consistently. The reference cell was filled with ultrapure water for all experiments. The 200 μL sample cell was filled with protein solution, and the 40 μL injection syringe was filled with polysorbate solution and equilibrated at 5 °C below the experimental temperature. The reference power was set to 41.86 μJ/s (10 μcal/s). Experiments comprised 14 injections of 2.5 μL at an injection speed of 0.5 μL/s. The time between injections was set long enough to allow the heat signals to return to the baseline before the next injection. The solution in the reaction cell was continuously stirred at a speed of 500 rpm. Experiments requiring the titration of peptide or surfactant into protein–surfactant or protein–peptide required the continuation of one experiment into the next, to maintain precise concentration ratios between experimental pathways. As a result, once an experiment had concluded, excess solution was withdrawn and the next titration was conducted into the resulting solution. A reference experiment of polysorbate injected into buffer solution was conducted under identical conditions and subtracted from each run that contained polysorbate in the injection syringe. For experiments that contained MEDI7219 in the injection syringe, a control experiment could not be subtracted in the same manner as the polysorbate experiments. This was suspected to be a consequence of limitations in the software and the interactions generating small binding heats, leading to a noisier thermogram. However, a fitted offset was used instead, which reduced noise and allowed a smooth heat integration. Data were analyzed using MicroCal PEAQ-ITC Analysis Software v1.41. The binding model was analyzed using the one set of binding sites software preset, resulting in the values of changes in the Gibbs free energy (ΔG), enthalpy (ΔH), and entropy in relation to temperature (−TΔS). Each experiment was repeated a minimum of three times to assess the reproducibility.

HSA [2] = molecular target: T1, HSA; assay: DSC thermal stability of HSA with MEDI7219 and polysorbates; assay type: physicochemical; conditions: DSC of 10 mg/mL HSA, no polysorbate, MEDI7219 10 mg/mL where ligand
Description: Lyophilized protein and MEDI7219 were rehydrated by adding buffer to achieve a concentration of 30 mg/mL, then stored at 5 °C for 72 h or until fully dissolved. Polysorbate solutions were prepared at 3 times higher than the desired concentration to account for dilution in the formulation after mixing with MEDI7219. Polysorbate concentrations in experiments were 0.1× and 1× each polysorbates respective CMC. Samples were produced by adding equal volumes of each component to provide the desired formulation. DSC experiments were conducted using a Microcal PEAQ-DSC instrument from Malvern Panalytical. Prior to each experiment, DSC cells were washed with 2% Decon 90 detergent and then rinsed with ultrapure water. The DSC capillary cell volume was 250 μL for both reference and sample cells; for each experiment, the reference cell contained buffer solution. […] A reference scan of the buffer solution was conducted under identical conditions and subtracted from each run. Data were analyzed using MicroCal PEAQ-DSC Analysis Software v1.64.

HSA [3] = molecular target: T1, HSA; assay: ITC titration of polysorbate into HSA in the absence and presence of MEDI7219; assay type: binding; conditions: for ΔG / ΔH / –TΔS / Kd: 30 °C; for Kd: [HSA] = 0.15 mM, read-out: dissociation constant; for αii (K A/B/K A): ratio of association constants with/without MEDI7219
Description: as §1, with “The reference power was set to 41.86 μJ/s (10 μcal/s).” left out, “For experiments that contained MEDI7219 in the injection syringe, a control experiment could not be subtracted in the same manner as the polysorbate experiments. This was suspected to be a consequence of limitations in the software and the interactions generating small binding heats, leading to a noisier thermogram. However, a fitted offset was used instead, which reduced noise and allowed a smooth heat integration.” left out

HSA [4] = molecular target: T1, HSA; design: method as in not given; conditions: native GLP-1, reported value; ref not given; cited from earlier work
[5] = MEDI7219 → HSA + RG T20 (1 × CMC), 30 °C
[6] = MEDI7219 → HSA + RG T80 (1 × CMC), 30 °C
[7] = MEDI7219 → HSA + SR T20 (1 × CMC), 30 °C
[8] = MEDI7219 → HSA + SR T80 (1 × CMC), 30 °C
[9] = MEDI7219 → HSA, no polysorbate, 30 °C
[10] = polysorbate (1 × CMC) → HSA + MEDI7219
[11] = polysorbate (1 × CMC) → HSA + MEDI7219, [MEDI7219] = 2.5 mM
[12] = polysorbate (1 × CMC) → HSA, MEDI7219 absent

## CCCCCCCCCCCC(=O)N[C@@H](CCC(=O)NCCOCCOCC(=O)NCCOCCOCC(=O)NCCCC[C@H](NC(=O)[C@H](C)NC(=O)[C@@H](NC(=O)[C@](C)(Cc1ccccc1)NC(=O)[C@H](CCC(=O)O)NC(=O)[C@](C)(CCCCN)NC(=O)[C@H](C)NC(=O)[C@H](C)NC(=O)[C@H](CCC(=O)O)NC(=O)CNC(=O)[C@H](CCC(=O)O)NC(=O)[C@H](CC(C)C)NC(=O)[C@H](CCCCNC(=O)COCCOCCNC(=O)COCCOCCNC(=O)CC[C@H](NC(=O)CCCCCCCCCCC)C(=O)O)NC(=O)[C@H](CO)NC(=O)[C@](C)(CO)NC(=O)[C@@H](NC(=O)[C@H](CC(=O)O)NC(=O)[C@H](CO)NC(=O)[C@@H](NC(=O)[C@](C)(Cc1ccccc1)NC(=O)[C@H](CO)NC(=O)CNC(=O)[C@H](CCC(=O)O)NC(=O)C(C)(C)NC(=O)[C@@H](N)Cc1c[nH]cn1)[C@@H](C)O)C(C)C)[C@@H](C)CC)C(=O)N[C@H](C(=O)N[C@H](C(=O)N[C@@H](CCC(=O)O)C(=O)NCC(=O)NCC(N)=O)C(C)C)C(C)C)C(=O)O [MEDI7219] (H-H[Aib]EGS[αMeF]TSDV[αMeS]SK([AEEA-AEEA-γGlu-Lauroyl])LEGEAA[αMeK]E[αMeF]IAK([AEEA-AEEA-γGlu-Lauroyl])VVEGG-NH2; N-terminus and C-terminus assumed)
HSA [1]; [5]
  ΔG: –21.8 (±0.87) kJ mol^–1
  –TΔS: –15.3 (±1.28) kJ mol^–1
  Kd: 176 µM
HSA [1]; [6]
  ΔH: 25.3 (±0.70) kJ mol^–1
  –TΔS: –52.1 (±4.34) kJ mol^–1
  Kd: 24 µM
HSA [1]; MEDI7219 → HSA + RG T80 (1 × CMC)
  αi (K B/A/K B): 1.68
HSA [1]; [7]
  ΔH: 27.8 (±9.32) kJ mol^–1
  –TΔS: –52.5 (±4.35) kJ mol^–1
  Kd: 55.6 µM
HSA [1]; [8]
  ΔH: 25.4 (±1.03) kJ mol^–1
  –TΔS: –51.3 (±6.16) kJ mol^–1
  Kd: 35.1 µM
HSA [1]; MEDI7219 → HSA + SR T80 (1 × CMC)
  αi (K B/A/K B): 1.30
HSA [1]; [9]
  ΔH: 35.4 (±8.19) kJ mol^–1
  –TΔS: –60.9 (±7.70) kJ mol^–1
HSA [1]; MEDI7219 → HSA, no polysorbate, 30 °C, [HSA] = 0.15 mM, [MEDI7219] = 2.5 mM, average across all experiments
  Kd: 40.3 µM
HSA [1]; MEDI7219 → HSA, no polysorbate, 30 °C, example titration
  association constant: 2.4 × 10^4 M^–1
HSA [1]; in the presence of RG T80 versus its absence
  decrease of dissociation constant of MEDI7219: 2 fold
HSA [2]
  Tm 2: 74 °C and 74.0 (±0.1) °C
HSA [2]; 20–105 °C at 60 °C/h
  total area: 806.3 (±5.8) kJ/mol

## Polyoxyethylene (20) sorbitan monolaurate [RG T20]
HSA [3]; [10]
  ΔG: –15.40 (±0.77) kJ mol^–1
  ΔH: –9.07 (±9.4 × 10^–7) kJ mol^–1
  –TΔS: –6.36 (±0.26) kJ mol^–1
  αii (K A/B/K A): 0.47
HSA [3]; [11]
  Kd: 2210 µM
HSA [3]; [12]
  ΔG: –17.30 (±0.87) kJ mol^–1
  ΔH: –83.70 (±36.7) kJ mol^–1
  –TΔS: 66.40 (±2.74) kJ mol^–1
  Kd: 1030 µM

## Polyoxyethylene (20) sorbitan monolaurate [SR T20]
HSA [3]; [10]
  ΔG: –16.10 (±0.81) kJ mol^–1
  ΔH: –4.19 (±0.62) kJ mol^–1
  –TΔS: –11.90 (±0.50) kJ mol^–1
  αii (K A/B/K A): 0.43
HSA [3]; [11]
  Kd: 1690 µM
HSA [3]; [12]
  ΔG: –18.20 (±0.91) kJ mol^–1
  ΔH: –43.10 (±6.15) kJ mol^–1
  –TΔS: 24.90 (±1.03) kJ mol^–1
  Kd: 721 µM

## native GLP-1: native glucagon-like peptide-1, literature comparison
HSA [4]
  association constant: 2.3 × 10^8 M^–1

## polyoxyethylene (20) sorbitan monooleate [RG T80]
HSA [3]; [10]
  ΔG: –16.00 (±0.80) kJ mol^–1
  ΔH: –8.75 (±4.46) kJ mol^–1
  –TΔS: –7.25 (±0.23) kJ mol^–1
  αii (K A/B/K A): 0.57
HSA [3]; [11]
  Kd: 1760 µM
HSA [3]; [12]
  ΔG: –17.40 (±0.87) kJ mol^–1
  ΔH: –9.13 (±1.29) kJ mol^–1
  –TΔS: –8.26 (±0.34) kJ mol^–1
  Kd: 1010 µM

## polyoxyethylene (20) sorbitan monooleate [SR T80]
HSA [3]; [10]
  ΔG: –16.80 (±0.84) kJ mol^–1
  ΔH: –8.72 (±2.7 × 10^–5) kJ mol^–1
  –TΔS: –8.09 (±0.33) kJ mol^–1
  αii (K A/B/K A): 0.40
HSA [3]; [11]
  Kd: 1280 µM
HSA [3]; [12]
  ΔG: –19.10 (±0.10) kJ mol^–1
  ΔH: –30.10 (±2.02) kJ mol^–1
  –TΔS: 11.00 (±0.45) kJ mol^–1
  Kd: 513 µM
